Data set [1] is described as follows: H2 concentration in ascites fluid after ingestion (Example 2). In kind it is in vivo, mouse. The note with it: for H2 concentration in ascites fluid after ingestion of sugar solution: mouse abdominal cavity, ranking among sugars tested. Here is the method: Lactose, glucose, galactose, fructose, mannitol, inulin, Splenda® (McNeil Nutritionals (sucralose)), Equal® (Merisant (aspartame, dextrose, and maltodextrin)), and lactulose were tested along with a control.
After 30 minutes, H2-enriched water provided approximately 40 μM H2 concentration but dropped off to approximately 15 μM after 4 hours. At 4 hours, lactulose provided over 20 μM H2 concentration.

Data set [2] deals with Freund's complete adjuvant-induced hind paw inflammation in mice. The experiment in a line: Freund's complete adjuvant-induced hind paw inflammation in mice (Example 4). In kind it is in vivo, mice (BALB/c). The conditions noted are these: day 7, versus mice without lactulose. Here is the method:
The following experiment was performed to test the effects of Lactulose combined with Celecoxib or Ibuprofen on Freund's complete adjuvant-induced hind paw inflammation in mice, with the results shown in FIGS. 12-15.
For induction of hindpaw inflammation, mice (BALB/c; 8 w old male n=6/group) received i.pl. injection of 25 μl of complete Freund's adjuvant (CFA, diluted 1:1 with PBS, 2 mg/ml; Mycobacterium tuberculosis; Difco Laboratories, Detroit, Mich.). Lactulose (10% water) or control water alone was administered once in a day for 7 days (500 μl/day) by oral gavage using a 20-G bulb-tipped gastric gavage needle (P.O.). Celecoxib (Toronto Research Chemicals) and Ibuprofen (Enzo Life Sciences) dissolved in PBS was applied to mice once a day via intra-peritoneal (i.p.) injection (10 mg/kg/day, respectively) for 7 days. The thickness of the foot pad was measured using a digital microcaliper as mice were sacrificed on 7 day. Surgically removed hind paw tissue was homogenized in EIA-Buffer (Cayman) and subjected to mouse NGF ELISA (Millipore), PGE2 EIA (Cayman), or TNF-α ELISA (R&D systems).

Data set [3] relates to mouse foot pad inflammation induced by Freund's complete adjuvant (FCA). The experiment in a line: Freund's complete adjuvant induced foot pad inflammation in mice (Example 1). The data set is classed as in vivo. The procedure: Mice were placed in the following administration groups, and administration occurred daily:
1) Control (no treatment) (n=4)
2) Placebo (PBS, i.p.) inoculation—(i.e. CFA only) (n=4)
3) H2 enriched PBS inoculation (i.e. CFA+H2) (n=4)
4) Lactulose inoculation at 0.5 mL/mouse (i.e. CFA+Lact) (n=4)
5) LYRICA® (i.e. CFA+Lyr) (n=5)
6) LYRICA®+H2 enriched PBS (i.e. CFA+Lyr+H2) (n=5)
7) LYRICA®+Lactulose in PBS (i.e. CFA+Lact+H2) (n=4)
CFA was injected into the mice in groups 2 through 7 above. Inflammation was induced in the mice by injection of Freund's complete adjuvant (FCA), 25 μL/foot, on day 0 as shown in FIG. 1A. […] These measurements included thickness of foot pad (level of inflammation), amount of H2 in abdominal cavity, amount of nerve growth factor (NGF) (pain marker) in foot pad, amount of Substance P (pain marker) in foot pad, and amount of IL-1β in foot pad (level of inflammation).

For data set [4], the system named is tonic extensor seizures in mice. The conditions noted are these: cited from earlier work; for Effect # Protected/# Tested / Ataxia # Ataxia/# Tested: mice, intravenous, 120 min after dose; for Effect # Protected/# Tested: electroshock.
A further data set deals with GAD. The note with it: cited from earlier work.
For data set [5], the system named is mouse macrophage cell line (RAW264.7). The experiment in a line: TNF-α production from LPS-stimulated mouse macrophages (Example 3). The conditions noted are these: LPS-stimulated RAW264.7, 24 hours, ELISA; drug 10-1000 nM, with or without H2. In kind it is cell-based. Here is the method: The following is an in vitro experiment to test the effects of hydrogen on the Celecoxib- or Ibuprofen-mediated anti-inflammatory activities, and the results are shown in FIGS. 10 and 11.
The mouse macrophage cell line (RAW264.7) was seeded at a density of 1.0×10^5 cells/well in 96-well culture plates in Minimum Essential Medium Alpha ( ? -MEM, Sigma) supplemented with penicillin G solution (100 U/ml, GIBCO; Invitrogen, Buffalo, N.Y.), streptomycin ([…], GIBCO; Invitrogen), and gentamicin (50 ? g/ml, GIBCO; Invitrogen) containing 10% FBS in the presence or absence of H2 (300 nM/ml) for 30 min. Then the cells were exposed to LPS (0.1 mg/ml, Invivogen, San Diego, Calif.), with or without a variety of concentrations of Celecoxib or Ibuprofen (10-1000 nM). After culture of the RAW264.7 cells for 24 hours in a CO2 incubator (37° C.), the culture supernatant was harvested and subjected to TNF-α ELISA (R&D Systems).

Read-outs that look alike come from different tables or passages of the source.

We go through 16 molecules from patent US9925204B2, “Anti-inflammatory compounds in combination with hydrogen for the treatment of inflammation” (priority 2012, dated 2018).

Turning to `OC[C@H]1O[C@@H](O[C@@H]2[C@@H](CO)OC(O)(CO)[C@H]2O)[C@H](O)[C@@H](O)[C@H]1O` (mixture of isomers) [Lactulose, lactulose], the “H2 concentration in ascites fluid” value in data set [1] (after 4 hours) is listed as “over 20 μM”. For the same molecule, the “H2 concentration in ascites fluid after ingestion of sugar solution” value in data set [1] is on record as “highest concentration of H2 in ascites fluid”. In data set [2] (lactulose 10% P.O. 500 μl/day, drug 10 mg/kg/day i.p.), the foot pad swelling entry is “reduced”. In data set [2], the “NGF in inflamed foot pads” value is given as “reduced”, the “amount of PGE2 in inflamed foot pads” value is “reduced” and the “amount of TNF-α in inflamed foot pads” value is recorded as “greatly reduced”. In addition, in data set [3] (day 8, CFA-injected mice), the “H2 concentration in the abdomen” value is “highest”.

As for `CC(CN)CC(=O)O` (racemic) [(R,S)—CH3], the “Effect # Protected/# Tested” value in data set [4] (10 mg/kg) is 0/5; in data set [4] (30 mg/kg), 4/5; in data set [4] (100 mg/kg), 3/5. The “Ataxia # Ataxia/# Tested” value in data set [4] (10 mg/kg), in data set [4] (30 mg/kg) and in data set [4] (100 mg/kg) was 0/5 in each case.

Turning to `CC(C)CC(CN)CC(=O)O` (racemic) [(R,S)—i-C4H9, H, 4-amino-3-(2-methylpropyl)butanoic acid], in data set [4] (compared with the other analogs), the “potency when tested in vivo” value is listed as “more potent than the other analogs”. The “activating GAD in vitro” value in the data set with GAD (compared with the other analogs tested) is recorded as “least effective one of the analogs tested”.

For `CC(N)CCC(=O)O` (racemic) [H(R,S)], the “Activation of GAD by GABA analogs expressed in %” value in the data set on GAD (0.25 mM) was 104%; in the data set with GAD (1.0 mM), 111%; in the data set with GAD (2.5 mM), 140%.

As to `CC(C)Cc1ccc(C(C)C(=O)O)cc1` (racemic) [ibuprofen, (RS)-2-(4-(2-methylpropyl)phenyl)propanoic acid], the TNF-α production result in data set [5] was “TNF-α suppression”.

Consider `CC(C)(CN)CC(=O)O` [(CH3)2], for which, in data set [4] (30 mg/kg), the “Effect # Protected/# Tested” value is 4/5 and the “Ataxia # Ataxia/# Tested” value was 0/5. Moreover, in data set [4] (100 mg/kg), the “Effect # Protected/# Tested” value is reported as 4/5 and the “Ataxia # Ataxia/# Tested” value was 0/5.

On to `NCC1(CC(=O)O)CCCCC1` [GABAPENTIN, gabapentin], for which the “Activation of GAD by GABA analogs expressed in %” value with GAD (0.25 mM) is 105%; in the data set with GAD (1.0 mM), 145%; with GAD (2.5 mM), 178%.

Turning to `C[C@@H](N)CCC(=O)O` [H(R)], the “Activation of GAD by GABA analogs expressed in %” value was 108% with GAD (0.25 mM), 125% in the data set on GAD (1.0 mM) and 173% with GAD (2.5 mM).

In the case of `C[C@H](N)CCC(=O)O` [H(S)], the “Activation of GAD by GABA analogs expressed in %” value in the data set on GAD (0.25 mM), in the data set on GAD (1.0 mM) and with GAD (2.5 mM) was 100% in each case.

For `CC(C)C[C@H](CN)CC(=O)O` [LYRICA®, (S)-(+)-4-amino-3-(2-methylpropyl)butanoic acid], in data set [3] (CFA-injected mice), the “IL-1β in tissue (level of inflammation)” value is reported as “slightly reduced levels of inflammation compared to placebo group 2” and the “Substance P (pain marker) in tissue” value is on record as “reduction in the marker compared to the placebo group 2”.

In the case of `CCCC(CCC)C(=O)[O-].[Na+]` [Sodium Valproate], the “Activation of GAD by GABA analogs expressed in %” value in the data set on GAD (0.05 mM) is 105%; in the data set on GAD (0.1 mM), 115%; in the data set on GAD (0.25 mM), 119%; with GAD (0.5 mM) it was 124%; in the data set with GAD (1.0 mM), 138%; with GAD (2.5 mM), 207%. Also, the “Activation of GAD by glutamate analogs expressed in %” value is 119% in the data set on GAD (0.25 mM), 138% in the data set with GAD (1.0 mM) and 207% in the data set on GAD (2.5 mM).

With `CC(C)CC(CN)CC(=O)O` (stereo not drawn) [i-C4H9, 4-amino-3-(2-methylpropyl)butanoic acid], the “Effect # Protected/# Tested” value in data set [4] (0.3 mg/kg) was 1/10; in data set [4] (0.8 mg/kg), 3/10; in data set [4] (2.0 mg/kg), 5/10; in data set [4] (5.5 mg/kg) it was 7/10.

For the molecule `CC(C)(C)CC(CN)CC(=O)O` (stereo not drawn) [neo-C5H11], the “Effect # Protected/# Tested” value in data set [4] (10 mg/kg) is listed as 2/10; in data set [4] (30 mg/kg), 4/10; in data set [4] (100 mg/kg) it was 4/10. Further, the “Ataxia # Ataxia/# Tested” value in data set [4] (10 mg/kg), in data set [4] (30 mg/kg) and in data set [4] (100 mg/kg) was 0/10 throughout.

For `CCC(C)C(CN)CC(=O)O` (stereo not drawn) [s-C4H9], the “Effect # Protected/# Tested” value in data set [4] (3 mg/kg) is 2/10; in data set [4] (10 mg/kg) it was 3/10; in data set [4] (30 mg/kg) it was 2/10. Besides, the “Ataxia # Ataxia/# Tested” value in data set [4] (3 mg/kg), in data set [4] (10 mg/kg) and in data set [4] (30 mg/kg) was 0/10 throughout.

Take `CC(C)(C)C(CN)CC(=O)O` (stereo not drawn) [t-C4H9]: the “Effect # Protected/# Tested” value is 2/10 in data set [4] (10 mg/kg), 2/10 in data set [4] (30 mg/kg) and 5/10 in data set [4] (100 mg/kg). In addition, the “Ataxia # Ataxia/# Tested” value in data set [4] (10 mg/kg), in data set [4] (30 mg/kg) and in data set [4] (100 mg/kg) was 0/10 in each case.

Regarding inulin, the “H2 concentration in ascites fluid after ingestion of sugar solution” value in data set [1] is recorded as “next highest concentration”.
